Laboratory results from article PMC5642474, “Pre-clinical pharmacology of AZD3965, a selective inhibitor of MCT1: DLBCL, NHL and Burkitt’s lymphoma anti-tumor activity” (Oncotarget, 2017).

Assays:
MCT1 = molecular target: T1, MCT1 (Homo sapiens, UniProt P53985); assay: SPA competition binding, […]-MCT1 ligand displacement on Jurkat cell membranes; also Ki […] on recombinant human MCT1 yeast membranes; settings: read-out: AZD3965
T1 construct: gene SLC16A1
T1 sequence (P53985 1-500): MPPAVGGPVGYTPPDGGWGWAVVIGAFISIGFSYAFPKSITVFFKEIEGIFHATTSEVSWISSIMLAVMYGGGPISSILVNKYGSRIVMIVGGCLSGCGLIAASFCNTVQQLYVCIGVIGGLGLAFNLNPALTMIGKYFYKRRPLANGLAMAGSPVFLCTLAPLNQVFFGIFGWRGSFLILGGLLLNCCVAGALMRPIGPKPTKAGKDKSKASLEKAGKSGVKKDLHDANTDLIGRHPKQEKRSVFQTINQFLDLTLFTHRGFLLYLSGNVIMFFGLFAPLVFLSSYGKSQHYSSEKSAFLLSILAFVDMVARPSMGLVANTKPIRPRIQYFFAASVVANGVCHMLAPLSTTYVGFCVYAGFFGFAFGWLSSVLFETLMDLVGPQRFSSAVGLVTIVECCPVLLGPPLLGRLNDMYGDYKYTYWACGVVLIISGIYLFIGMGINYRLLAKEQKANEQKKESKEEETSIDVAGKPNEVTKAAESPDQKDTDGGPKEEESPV

MCT2 = molecular target: T2, MCT2 (Homo sapiens, UniProt O60669); settings: read-out: AZD3965
T2 construct: gene SLC16A7
T2 sequence (O60669 whole entry): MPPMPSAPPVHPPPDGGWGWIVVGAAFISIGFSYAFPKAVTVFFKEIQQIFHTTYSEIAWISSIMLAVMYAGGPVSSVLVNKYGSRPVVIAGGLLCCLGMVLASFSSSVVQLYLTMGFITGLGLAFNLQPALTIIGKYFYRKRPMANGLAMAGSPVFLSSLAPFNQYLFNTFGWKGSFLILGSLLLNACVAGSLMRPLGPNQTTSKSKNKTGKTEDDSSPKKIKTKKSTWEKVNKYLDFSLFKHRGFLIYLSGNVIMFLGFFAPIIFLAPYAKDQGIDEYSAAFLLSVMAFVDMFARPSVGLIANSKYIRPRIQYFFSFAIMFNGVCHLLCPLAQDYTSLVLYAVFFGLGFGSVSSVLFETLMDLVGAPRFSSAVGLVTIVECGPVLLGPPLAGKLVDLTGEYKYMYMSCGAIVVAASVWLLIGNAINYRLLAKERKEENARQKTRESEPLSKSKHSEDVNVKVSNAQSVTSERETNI

## Cc1[nH]nc(C(F)(F)F)c1Cc1sc2c(c1C(=O)N1C[C@](C)(O)CO1)c(=O)n(C)c(=O)n2C(C)C [AZD3965]
MCT1
  Ki: 1.6 nM
MCT2
  Ki: 20 nM
